# The source made the active and inactive calls. The calls are words filed in the database; no cut-off is given here.
# How the values were obtained:
# [1] = target: T1, Lipoprotein lipase (Homo sapiens) (UniProt P06858); assay: Agonist activity at lipoprotein lipase (unknown origin) using p-nitrophenylbutyrate as substrate by spectrophotometric analysis relative to control; parameters: concentration or dose not given beside the values
# T1 sequence (whole entry): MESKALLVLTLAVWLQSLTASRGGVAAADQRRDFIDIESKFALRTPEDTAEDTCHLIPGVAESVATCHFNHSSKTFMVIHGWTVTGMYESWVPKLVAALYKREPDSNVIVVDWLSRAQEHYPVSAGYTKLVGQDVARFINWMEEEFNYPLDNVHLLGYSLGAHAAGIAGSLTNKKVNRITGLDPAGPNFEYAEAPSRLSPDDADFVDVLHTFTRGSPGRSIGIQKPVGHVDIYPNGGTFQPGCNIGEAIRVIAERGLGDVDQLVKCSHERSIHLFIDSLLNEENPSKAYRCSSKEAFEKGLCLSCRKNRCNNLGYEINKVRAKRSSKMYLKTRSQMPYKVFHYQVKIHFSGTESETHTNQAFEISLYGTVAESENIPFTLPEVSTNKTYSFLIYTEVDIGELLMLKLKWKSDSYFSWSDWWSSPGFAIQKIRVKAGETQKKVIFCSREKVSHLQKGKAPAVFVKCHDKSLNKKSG
# [2] = target: T1, Lipoprotein lipase (Homo sapiens); assay: Activation of lipoprotein lipase (unknown origin) assessed as reversal of ANGPTL4-mediated enzyme inhibition treated with ANGPTL4 for 30 mins followed by substrate addition measured after 20 mins by spectrophotometric analysis
# [3] = target: T1, Lipoprotein lipase (Homo sapiens); assay: Agonist activity at lipoprotein lipase (unknown origin) using p-nitrophenylbutyrate as substrate by spectrophotometric analysis relative to NO-1886
# [4] = target: T1, Lipoprotein lipase (Homo sapiens); assay: Agonist activity at lipoprotein lipase (unknown origin) using p-nitrophenylbutyrate as substrate at 40 uM by spectrophotometric analysis
# [5] = target: T1, Lipoprotein lipase (Homo sapiens); assay: Agonist activity at lipoprotein lipase (unknown origin) using p-nitrophenylbutyrate as substrate by spectrophotometric analysis
Activity [1],Activity [2],fold change (FC) [3],Activity [4],Activity [5],Compound
122%,,,,,CC1(C(=O)NCCCn2cnc(Cl)c2)CC1(Br)Br (configuration not stated)
113%,,,,,Cc1cn(CCCNC(=O)C2(C)CC2(Br)Br)cn1 (configuration not stated)
130%,,,,,CC1(C(=O)NCCCN2CCOCC2)CC1(Br)Br (configuration not stated)

# Further lines, the compound ahead of its results:
Compound,Activity [1],Activity [2],fold change (FC) [3],Activity [4],Activity [5]
CC1(C)CC1(C(=O)NCCCn1ccnc1)c1ccc(F)cc1 (configuration not stated),342%,Dose-dependent effect,2,,
CCOP(=O)(Cc1ccc(C(=O)Nc2ccc(Br)cc2C#N)cc1)OCC,170%,inactive,,,
CC1(C(=O)NCCCn2ccnc2)CC1(Cl)Cl (configuration not stated),196%,Dose-dependent effect,,Active,Dose-dependent effect
